In ChEMBL document CHEMBL2311281, “Novel berberine triazoles: synthesis, antimicrobial evaluation and competitive interactions with metal ions to human serum albumin” (Bioorg Med Chem Lett, 2013):
In brackets after ≈: the same amount, converted by molar mass.

Each compound was assayed on Staphylococcus aureus (assay: Antibacterial activity against Staphylococcus aureus ATCC 25923 by two fold serial dilution method). Conditions: not given.
Format: functional

**Q.** With `Clc1ccc(CN(CCBr)CCn2cncn2)c(Cl)c1` as the compound, how does the MIC read?
**A.** 64 µg/mL (≈ 169 µM)

**Q.** For `Fc1ccccc1CN(CCBr)CCn1cncn1`, which MIC is on record?
**A.** 64 µg/mL (≈ 196 µM)

**Q.** How did the MIC turn out when `COc1ccc2cc3[n+](cc2c1OCCN(CCn1cncn1)Cc1ccc(F)cc1F)CCc1cc2c(cc1-3)OCO2.[Cl-]` was run?
**A.** 4 µg/mL

**Q.** Which MIC does the source give for `COc1ccc2cc3[n+](cc2c1OCCN(CCn1cncn1)Cc1ccccc1Cl)CCc1cc2c(cc1-3)OCO2.[Cl-]` here?
**A.** 8 µg/mL

**Q.** How did the MIC turn out when `Clc1ccc(CN(CCBr)CCn2cncn2)cc1Cl` was run?
**A.** 64 µg/mL (≈ 169 µM)

The compounds below were run on Staphylococcus aureus (assay: Potency index, ratio of MIC for berberine to MIC compound against methicillin-resistant Staphylococcus aureus N315 by two fold serial dilution method). Conditions: not given.
Format: functional

**Q.** `COc1ccc2cc3[n+](cc2c1OCCN(CCn1cncn1)Cc1ccc(F)cc1F)CCc1cc2c(cc1-3)OCO2.[Cl-]` was tested. Which Ratio did it give?
**A.** 16

These compounds were tested against T1, Albumin (Homo sapiens, UniProt P02768) (assay: Ratio of binding affinity to HSA in presence of K+ ions to binding affinity to HSA in absence of metal ions). Conditions: isolated protein.
Format: ADME

T1 sequence (P02768 whole entry): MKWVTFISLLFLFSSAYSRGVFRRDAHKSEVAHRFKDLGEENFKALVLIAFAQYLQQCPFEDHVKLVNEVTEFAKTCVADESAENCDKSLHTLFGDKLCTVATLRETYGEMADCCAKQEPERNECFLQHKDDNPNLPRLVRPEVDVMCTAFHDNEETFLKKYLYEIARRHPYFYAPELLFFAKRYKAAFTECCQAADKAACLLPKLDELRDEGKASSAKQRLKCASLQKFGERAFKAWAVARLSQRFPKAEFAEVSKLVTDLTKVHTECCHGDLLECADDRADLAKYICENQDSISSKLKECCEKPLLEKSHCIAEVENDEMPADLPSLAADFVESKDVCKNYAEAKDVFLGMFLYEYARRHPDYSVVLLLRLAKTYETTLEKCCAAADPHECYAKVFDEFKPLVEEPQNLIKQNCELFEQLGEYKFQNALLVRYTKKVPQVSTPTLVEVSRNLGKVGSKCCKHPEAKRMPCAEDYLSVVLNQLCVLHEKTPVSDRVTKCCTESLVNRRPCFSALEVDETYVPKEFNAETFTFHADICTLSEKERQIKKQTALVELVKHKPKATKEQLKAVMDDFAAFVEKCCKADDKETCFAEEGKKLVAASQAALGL

**Q.** For `COc1ccc2cc3[n+](cc2c1OCCN(CCn1cncn1)Cc1ccc(F)cc1F)CCc1cc2c(cc1-3)OCO2.[Cl-]`, which Ratio is on record?
**A.** 0.943

Each compound was assayed against T1, Albumin (assay: Ratio of binding affinity to HSA in presence of Ce3+ ions to binding affinity to HSA in absence of metal ions). Conditions: isolated protein.
Format: ADME

**Q.** For `COc1ccc2cc3[n+](cc2c1OCCN(CCn1cncn1)Cc1ccc(F)cc1F)CCc1cc2c(cc1-3)OCO2.[Cl-]`, which Ratio is on record?
**A.** 0.998

The compounds below were run against T1, Albumin (assay: Ratio of binding affinity to HSA in presence of Ni2+ ions to binding affinity to HSA in absence of metal ions). Conditions: isolated protein.
Format: ADME

**Q.** `COc1ccc2cc3[n+](cc2c1OCCN(CCn1cncn1)Cc1ccc(F)cc1F)CCc1cc2c(cc1-3)OCO2.[Cl-]` was tested. Which Ratio did it give?
**A.** 0.839

Each compound was assayed against T1, Albumin (assay: Ratio of binding affinity to HSA in presence of Mg2+ ions to binding affinity to HSA in absence of metal ions). Conditions: isolated protein.
Format: ADME

**Q.** With `COc1ccc2cc3[n+](cc2c1OCCN(CCn1cncn1)Cc1ccc(F)cc1F)CCc1cc2c(cc1-3)OCO2.[Cl-]` as the compound, how does the Ratio read?
**A.** 1.064

The compounds below were run against T1, Albumin (assay: Ratio of binding affinity to HSA in presence of Ca2+ ions to binding affinity to HSA in absence of metal ions). Conditions: isolated protein.
Format: ADME

**Q.** Which Ratio does the source give for `COc1ccc2cc3[n+](cc2c1OCCN(CCn1cncn1)Cc1ccc(F)cc1F)CCc1cc2c(cc1-3)OCO2.[Cl-]` here?
**A.** 0.956

What follows are compounds tested against T1, Albumin (assay: Ratio of binding affinity to HSA in presence of Cu2+ ions to binding affinity to HSA in absence of metal ions). Conditions: isolated protein.
Format: ADME

**Q.** How did the Ratio turn out when `COc1ccc2cc3[n+](cc2c1OCCN(CCn1cncn1)Cc1ccc(F)cc1F)CCc1cc2c(cc1-3)OCO2.[Cl-]` was run?
**A.** 0.972

These compounds were tested against T1, Albumin (assay: Ratio of binding affinity to HSA in presence of La3+ ions to binding affinity to HSA in absence of metal ions). Conditions: isolated protein.
Format: ADME

**Q.** With `COc1ccc2cc3[n+](cc2c1OCCN(CCn1cncn1)Cc1ccc(F)cc1F)CCc1cc2c(cc1-3)OCO2.[Cl-]` as the compound, how does the Ratio read?
**A.** 0.883

What follows are compounds tested against T1, Albumin (assay: Ratio of binding affinity to HSA in presence of Fe3+ ions to binding affinity to HSA in absence of metal ions). Conditions: isolated protein.
Format: ADME

**Q.** How did the Ratio turn out when `COc1ccc2cc3[n+](cc2c1OCCN(CCn1cncn1)Cc1ccc(F)cc1F)CCc1cc2c(cc1-3)OCO2.[Cl-]` was run?
**A.** 1.116

What follows are compounds tested on Staphylococcus aureus (assay: Potency index, ratio of MIC for chloromycin to MIC compound against methicillin-resistant Staphylococcus aureus N315 by two fold serial dilution method). Conditions: not given.
Format: functional

**Q.** How did the Ratio turn out when `COc1ccc2cc3[n+](cc2c1OCCN(CCn1cncn1)Cc1ccc(F)cc1F)CCc1cc2c(cc1-3)OCO2.[Cl-]` was run?
**A.** 2

The compounds below were run on Micrococcus luteus (assay: Antibacterial activity against Micrococcus luteus ATCC 4698 by two fold serial dilution method). Conditions: not given.
Format: functional

**Q.** Which MIC does the source give for `Clc1ccc(CN(CCBr)CCn2cncn2)c(Cl)c1` here?
**A.** 32 µg/mL (≈ 84.6 µM)

**Q.** `Fc1ccccc1CN(CCBr)CCn1cncn1` was tested. Which MIC did it give?
**A.** 64 µg/mL (≈ 196 µM)

**Q.** Which MIC does the source give for `COc1ccc2cc3[n+](cc2c1OCCN(CCn1cncn1)Cc1ccc(F)cc1F)CCc1cc2c(cc1-3)OCO2.[Cl-]` here?
**A.** 8 µg/mL

**Q.** `COc1ccc2cc3[n+](cc2c1OCCN(CCn1cncn1)Cc1ccccc1Cl)CCc1cc2c(cc1-3)OCO2.[Cl-]` was tested. Which MIC did it give?
**A.** 32 µg/mL

**Q.** Which MIC does the source give for `Clc1ccc(CN(CCBr)CCn2cncn2)cc1Cl` here?
**A.** 32 µg/mL (≈ 84.6 µM)

These compounds were tested against T1, Albumin (assay: Ratio of binding affinity to HSA in presence of Zn2+ ions to binding affinity to HSA in absence of metal ions). Conditions: isolated protein.
Format: ADME

**Q.** With `COc1ccc2cc3[n+](cc2c1OCCN(CCn1cncn1)Cc1ccc(F)cc1F)CCc1cc2c(cc1-3)OCO2.[Cl-]` as the compound, how does the Ratio read?
**A.** 0.871

What follows are compounds tested on Escherichia coli (assay: Antibacterial activity against Escherichia coli DH52 by two fold serial dilution method). Conditions: not given.
Format: functional

**Q.** `Clc1ccc(CN(CCBr)CCn2cncn2)c(Cl)c1` was tested. Which MIC did it give?
**A.** 32 µg/mL (≈ 84.6 µM)

**Q.** `Fc1ccccc1CN(CCBr)CCn1cncn1` was tested. Which MIC did it give?
**A.** 32 µg/mL (≈ 97.8 µM)

**Q.** With `COc1ccc2cc3[n+](cc2c1OCCN(CCn1cncn1)Cc1ccc(F)cc1F)CCc1cc2c(cc1-3)OCO2.[Cl-]` as the compound, how does the MIC read?
**A.** 4 µg/mL

**Q.** Which MIC does the source give for `COc1ccc2cc3[n+](cc2c1OCCN(CCn1cncn1)Cc1ccccc1Cl)CCc1cc2c(cc1-3)OCO2.[Cl-]` here?
**A.** 8 µg/mL

**Q.** For `Clc1ccc(CN(CCBr)CCn2cncn2)cc1Cl`, which MIC is on record?
**A.** 32 µg/mL (≈ 84.6 µM)

What follows are compounds tested against T1, Albumin (assay: Ratio of binding affinity to HSA in presence of Pb2+ ions to binding affinity to HSA in absence of metal ions). Conditions: isolated protein.
Format: ADME

**Q.** `COc1ccc2cc3[n+](cc2c1OCCN(CCn1cncn1)Cc1ccc(F)cc1F)CCc1cc2c(cc1-3)OCO2.[Cl-]` was tested. Which Ratio did it give?
**A.** 0.963

The compounds below were run on Bacillus subtilis (assay: Antibacterial activity against Bacillus subtilis by two fold serial dilution method). Conditions: not given.
Format: functional

**Q.** Which MIC does the source give for `Clc1ccc(CN(CCBr)CCn2cncn2)c(Cl)c1` here?
**A.** 256 µg/mL (≈ 677 µM)

**Q.** `Fc1ccccc1CN(CCBr)CCn1cncn1` was tested. Which MIC did it give?
**A.** 256 µg/mL (≈ 782 µM)

**Q.** `COc1ccc2cc3[n+](cc2c1OCCN(CCn1cncn1)Cc1ccc(F)cc1F)CCc1cc2c(cc1-3)OCO2.[Cl-]` was tested. Which MIC did it give?
**A.** 8 µg/mL

**Q.** `COc1ccc2cc3[n+](cc2c1OCCN(CCn1cncn1)Cc1ccccc1Cl)CCc1cc2c(cc1-3)OCO2.[Cl-]` was tested. Which MIC did it give?
**A.** 8 µg/mL

**Q.** With `Clc1ccc(CN(CCBr)CCn2cncn2)cc1Cl` as the compound, how does the MIC read?
**A.** 256 µg/mL (≈ 677 µM)

The compounds below were run on Proteus vulgaris (assay: Antibacterial activity against Proteus vulgaris by two fold serial dilution method). Conditions: not given.
Format: functional

**Q.** For `Clc1ccc(CN(CCBr)CCn2cncn2)c(Cl)c1`, which MIC is on record?
**A.** 128 µg/mL (≈ 339 µM)

**Q.** For `Fc1ccccc1CN(CCBr)CCn1cncn1`, which MIC is on record?
**A.** 256 µg/mL (≈ 782 µM)

**Q.** With `COc1ccc2cc3[n+](cc2c1OCCN(CCn1cncn1)Cc1ccc(F)cc1F)CCc1cc2c(cc1-3)OCO2.[Cl-]` as the compound, how does the MIC read?
**A.** 2 µg/mL

**Q.** `COc1ccc2cc3[n+](cc2c1OCCN(CCn1cncn1)Cc1ccccc1Cl)CCc1cc2c(cc1-3)OCO2.[Cl-]` was tested. Which MIC did it give?
**A.** 16 µg/mL

**Q.** How did the MIC turn out when `Clc1ccc(CN(CCBr)CCn2cncn2)cc1Cl` was run?
**A.** 256 µg/mL (≈ 677 µM)

These compounds were tested on Shigella dysenteriae (assay: Antibacterial activity against Shigella dysenteriae by two fold serial dilution method). Conditions: not given.
Format: functional

**Q.** How did the MIC turn out when `Clc1ccc(CN(CCBr)CCn2cncn2)c(Cl)c1` was run?
**A.** 128 µg/mL (≈ 339 µM)

**Q.** For `Fc1ccccc1CN(CCBr)CCn1cncn1`, which MIC is on record?
**A.** 64 µg/mL (≈ 196 µM)

**Q.** For `COc1ccc2cc3[n+](cc2c1OCCN(CCn1cncn1)Cc1ccc(F)cc1F)CCc1cc2c(cc1-3)OCO2.[Cl-]`, which MIC is on record?
**A.** 4 µg/mL

**Q.** `COc1ccc2cc3[n+](cc2c1OCCN(CCn1cncn1)Cc1ccccc1Cl)CCc1cc2c(cc1-3)OCO2.[Cl-]` was tested. Which MIC did it give?
**A.** 32 µg/mL

**Q.** `Clc1ccc(CN(CCBr)CCn2cncn2)cc1Cl` was tested. Which MIC did it give?
**A.** 128 µg/mL (≈ 339 µM)

Each compound was assayed on Pseudomonas aeruginosa (assay: Antibacterial activity against Pseudomonas aeruginosa by two fold serial dilution method). Conditions: not given.
Format: functional

**Q.** For `Clc1ccc(CN(CCBr)CCn2cncn2)c(Cl)c1`, which MIC is on record?
**A.** 128 µg/mL (≈ 339 µM)

**Q.** Which MIC does the source give for `Fc1ccccc1CN(CCBr)CCn1cncn1` here?
**A.** 128 µg/mL (≈ 391 µM)

**Q.** `COc1ccc2cc3[n+](cc2c1OCCN(CCn1cncn1)Cc1ccc(F)cc1F)CCc1cc2c(cc1-3)OCO2.[Cl-]` was tested. Which MIC did it give?
**A.** 8 µg/mL

**Q.** Which MIC does the source give for `COc1ccc2cc3[n+](cc2c1OCCN(CCn1cncn1)Cc1ccccc1Cl)CCc1cc2c(cc1-3)OCO2.[Cl-]` here?
**A.** 32 µg/mL

**Q.** How did the MIC turn out when `Clc1ccc(CN(CCBr)CCn2cncn2)cc1Cl` was run?
**A.** 128 µg/mL (≈ 339 µM)

Each compound was assayed on Staphylococcus aureus (assay: Antibacterial activity against methicillin-resistant Staphylococcus aureus N315 by two fold serial dilution method). Conditions: not given.
Format: functional

**Q.** Which MIC does the source give for `Clc1ccc(CN(CCBr)CCn2cncn2)c(Cl)c1` here?
**A.** 256 µg/mL (≈ 677 µM)

**Q.** `Fc1ccccc1CN(CCBr)CCn1cncn1` was tested. Which MIC did it give?
**A.** 128 µg/mL (≈ 391 µM)

**Q.** Which MIC does the source give for `COc1ccc2cc3[n+](cc2c1OCCN(CCn1cncn1)Cc1ccc(F)cc1F)CCc1cc2c(cc1-3)OCO2.[Cl-]` here?
**A.** 8 µg/mL

**Q.** How did the MIC turn out when `COc1ccc2cc3[n+](cc2c1OCCN(CCn1cncn1)Cc1ccccc1Cl)CCc1cc2c(cc1-3)OCO2.[Cl-]` was run?
**A.** 16 µg/mL

**Q.** For `Clc1ccc(CN(CCBr)CCn2cncn2)cc1Cl`, which MIC is on record?
**A.** 256 µg/mL (≈ 677 µM)
